# Measurements as given in the supplement of paper PMC10307832.
# How the values were obtained:
# Experiment in all cases: relative viability (nuclei count vs DMSO), 5 days (fraction); higher = more cells survive
# [1] = compound: C1CN(CCN1)C2=CC=C(C=C2)C3=CN4C(=C(C=N4)C5=CC=NC6=CC=CC=C56)N=C3 [DM3189] + CC1(C)CCC(c2ccc(Cl)cc2)=C(CN2CCN(c3ccc(C(=O)NS(=O)(=O)c4ccc(N[C@H](CCN5CCOCC5)CSc5ccccc5)c(S(=O)(=O)C(F)(F)F)c4)cc3)CC2)C1 [Navitoclax] (partner 0.5 µM)
# Summary of the method: (§1)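 Each reported value is a median over duplicate plates. It expresses relative viability: treated-well nuclei count divided by vehicle-well nuclei count. Lung cancer cell lines in 1536-well plates were dosed by pin tool a day after seeding, alone with one drug or with a fixed anchor-drug dose plus five library-drug doses (not always all listed) in √10 steps, and nuclei were counted after 5 days.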
# [2] = compound: C1CN(CCN1)C2=CC=C(C=C2)C3=CN4C(=C(C=N4)C5=CC=NC6=CC=CC=C56)N=C3 [DM3189] + Cc1nc(Nc2ncc(C(=O)Nc3c(C)cccc3Cl)s2)cc(N2CCN(CCO)CC2)n1 [Dasatinib] (partner 0.075 µM)
# Summary of the method: as §1
# [3] = compound: C1CN(CCN1)C2=CC=C(C=C2)C3=CN4C(=C(C=N4)C5=CC=NC6=CC=CC=C56)N=C3 [DM3189] + COc1cc2c(Oc3ccc(NC(=O)C4(C(=O)Nc5ccc(F)cc5)CC4)cc3F)ccnc2cc1OCCCN1CCOCC1 [Foretinib] (partner 0.25 µM)
# Summary of the method: as §1
# [4] = compound: C1CN(CCN1)C2=CC=C(C=C2)C3=CN4C(=C(C=N4)C5=CC=NC6=CC=CC=C56)N=C3 [DM3189] + CC(=O)Nc1cccc(-n2c(=O)n(C3CC3)c(=O)c3c(Nc4ccc(I)cc4F)n(C)c(=O)c(C)c32)c1 [Trametinib] (partner 0.02 µM)
# Summary of the method: as §1
# [5] = compound: C1CN(CCN1)C2=CC=C(C=C2)C3=CN4C(=C(C=N4)C5=CC=NC6=CC=CC=C56)N=C3 [DM3189] + CS(=O)(=O)CCNCc1ccc(-c2ccc3ncnc(Nc4ccc(OCc5cccc(F)c5)c(Cl)c4)c3c2)o1 [Lapatinib] (partner 2 µM)
# Summary of the method: as §1
Cell Line,relative viability ([1]; first compound 0.08 µM),relative viability ([1]; first compound 0.253 µM),relative viability ([1]; first compound 0.8 µM),relative viability ([1]; first compound 2.53 µM),relative viability ([2]; first compound 0.08 µM),relative viability ([2]; first compound 0.253 µM),relative viability ([2]; first compound 0.8 µM),relative viability ([2]; first compound 2.53 µM),relative viability ([3]; first compound 0.08 µM),relative viability ([3]; first compound 0.253 µM),relative viability ([3]; first compound 0.8 µM),relative viability ([3]; first compound 2.53 µM),relative viability ([4]; first compound 0.08 µM),relative viability ([4]; first compound 0.253 µM),relative viability ([4]; first compound 0.8 µM),relative viability ([4]; first compound 2.53 µM),relative viability ([5]; first compound 0.08 µM),relative viability ([5]; first compound 0.253 µM),relative viability ([5]; first compound 0.8 µM),relative viability ([5]; first compound 2.53 µM)
NCI-H2170,0.637,0.541,0.541,0.711,0.718,0.466,0.591,0.515,0.985,1.01,0.883,1.16,1.09,0.96,0.835,0.825,0.277,0.256,0.256,0.268
NCI-H2228,0.96,0.952,1.1,1.3,0.577,0.41,0.545,0.245,0.802,0.828,0.7,0.517,0.476,0.494,0.581,0.236,1.51,1.08,0.865,0.263
NCI-H2347,0.861,0.819,0.743,0.763,0.261,0.384,0.341,0.284,1.24,1.29,0.957,0.843,0.28,0.262,0.276,0.31,1.09,0.866,0.703,0.97
NCI-H2405,0.758,0.802,0.873,0.89,0.215,0.204,0.201,0.214,1.04,1.06,1.02,1.05,0.669,0.615,0.614,0.579,1.14,1.01,0.979,0.958
NCI-H3122,0.97,0.968,0.957,0.824,0.853,0.639,0.757,0.708,0.98,0.909,0.735,0.805,0.19,0.205,0.181,0.217,0.976,1.02,0.911,0.878
PC-3 [JPC-3],0.826,0.83,0.859,0.892,1.12,1.07,1.16,0.966,1.09,1.1,0.993,1.08,0.75,0.776,0.722,0.788,0.436,0.456,0.431,0.439
PC-14,1.04,1.03,1,1.08,0.295,0.239,0.159,0.16,1.02,0.985,0.876,1.07,0.732,0.877,0.635,0.849,0.319,0.284,0.34,0.377
RERF-LC-KJ,0.997,1.35,0.81,1.09,1.03,0.891,0.744,0.943,1.03,0.904,0.927,0.97,1.03,0.95,0.927,0.986,0.965,0.954,0.843,0.854
SK-LU-1,0.686,0.595,0.564,0.397,0.143,0.109,0.104,0.136,0.77,0.66,0.492,0.479,0.441,0.402,0.429,0.378,0.864,0.718,0.583,0.459
SK-MES-1,1.21,1.28,1.08,1.18,0.322,0.263,0.265,0.237,0.849,0.701,0.698,0.76,0.54,0.485,0.481,0.548,0.458,0.416,0.456,0.402
SW 1573,1.11,0.964,0.901,1.25,0.741,0.389,0.46,0.382,1,0.737,1.05,0.99,0.677,0.6,0.53,0.539,1.1,0.944,1.16,1.23
UMC-11,0.287,0.322,0.295,0.265,0.467,0.429,0.467,0.401,1.01,0.975,0.988,1.02,0.745,0.706,0.59,0.62,1.2,1.04,0.868,0.751
